Drawing on PubChem BioAssay AID488867 (Broad Institute, 2010), this text covers protection from cytokine-induced depolarization for 20 compounds.

The assay can be described thus: INS-1E mitochondrial potential loss inhibitors – cell-based, JC-1 fluorescence, dry powder, set 2, dose response (AID 488867). The conditions noted are these: INS-1E cytokine-induced apoptosis, JC-1 mitochondrial potential, 48 h.

SMILES strings stand for the structures. The source made the active and inactive calls.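 The calls were made as follows: active = a rising curve with AC50 no higher than ten times the top valid dose of that compound; inconclusive = flat curve between 30 and 70 percent, or failed fit; inactive = the rest.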

With `COc1ccc(S(=O)(=O)N(C)C[C@@H]2Oc3c(NS(=O)(=O)c4ccc(F)cc4)cccc3C(=O)N([C@@H](C)CO)C[C@H]2C)cc1`, the protection from cytokine-induced depolarization (at 26 µM (top of the series)) is -3.26% (inactive).

As for `COc1ccc(S(=O)(=O)N(C)C[C@@H]2Oc3c(NS(=O)(=O)c4ccccc4)cccc3C(=O)N([C@@H](C)CO)C[C@H]2C)cc1`, the protection from cytokine-induced depolarization (at 26 µM (top of the series)) was -2.15% (inactive).

As for `C[C@@H]1CN([C@@H](C)CO)C(=O)c2cccc(NC(=O)Nc3cccc4ccccc34)c2O[C@H]1CN(C)C(=O)NC1CCCCC1`, under “at 26 µM (top of the series)”, the protection from cytokine-induced depolarization is -6.42% (inactive).

Take `COc1ccc(S(=O)(=O)N(C)C[C@@H]2Oc3c(cccc3N(C)C)C(=O)N([C@@H](C)CO)C[C@H]2C)cc1`: for the setting “at 23.5 µM (top of the series)”, the protection from cytokine-induced depolarization is -4.35% (inactive).

Turning to `C[C@@H]1CN([C@@H](C)CO)C(=O)c2cccc(NC(=O)Nc3cccc4ccccc34)c2O[C@H]1CN(C)S(=O)(=O)c1ccc(OC(F)(F)F)cc1`, the protection from cytokine-induced depolarization (at 26 µM (top of the series)) was -2.77% (inactive).

For `C[C@@H]1CN([C@H](C)CO)C(=O)c2cccc(NC(=O)Nc3ccccc3)c2O[C@H]1CN(C)S(=O)(=O)c1ccc(F)cc1`, the protection from cytokine-induced depolarization (at 26 µM (top of the series)) is 4.78% (inactive).

Regarding `C[C@@H]1CN([C@@H](C)CO)C(=O)c2cccc(NC(=O)Nc3cccc4ccccc34)c2O[C@H]1CN(C)C(=O)Nc1ccccc1`, the protection from cytokine-induced depolarization (at 23.5 µM (top of the series)) was 2.8% (inactive).

Regarding `COc1ccc(S(=O)(=O)N(C)C[C@@H]2Oc3c(NC(=O)Nc4c(C)noc4C)cccc3C(=O)N([C@@H](C)CO)C[C@H]2C)cc1`, for the setting “at 26 µM (top of the series)”, the protection from cytokine-induced depolarization is 2.03% (inactive).

As for `COc1ccc(S(=O)(=O)N(C)C[C@@H]2Oc3c(NC(=O)Nc4ccc(C(F)(F)F)cc4)cccc3C(=O)N([C@@H](C)CO)C[C@H]2C)cc1`, the protection from cytokine-induced depolarization (at 26 µM (top of the series)) is -7.36% (inactive).

Take `COc1ccc(S(=O)(=O)N(C)C[C@@H]2Oc3c(NC(=O)NC4CCCCC4)cccc3C(=O)N([C@@H](C)CO)C[C@H]2C)cc1`: the protection from cytokine-induced depolarization (at 26 µM (top of the series)) is 7.46% (inactive).

For `C[C@@H]1CN([C@@H](C)CO)C(=O)c2cccc(NC(=O)Nc3cccc4ccccc34)c2O[C@H]1CN(C)C(=O)Nc1ccc2c(c1)OCO2`, the protection from cytokine-induced depolarization (at 26 µM (top of the series)) was -3.61% (inactive).

On to `COc1ccc(S(=O)(=O)N(C)C[C@@H]2Oc3c(NC(=O)Nc4ccc5c(c4)OCO5)cccc3C(=O)N([C@@H](C)CO)C[C@H]2C)cc1`, for which the protection from cytokine-induced depolarization (at 26 µM (top of the series)) is 4.22% (inactive).

As to `COc1ccc(S(=O)(=O)N(C)C[C@@H]2Oc3c(NC(=O)Nc4cccc5ccccc45)cccc3C(=O)N([C@H](C)CO)C[C@@H]2C)cc1`, the protection from cytokine-induced depolarization (at 26 µM (top of the series)) was -2.94% (inactive).

Consider `COc1ccc(S(=O)(=O)N(C)C[C@@H]2Oc3c(NC(=O)c4nc5ccccc5s4)cccc3C(=O)N([C@@H](C)CO)C[C@H]2C)cc1`, for which the protection from cytokine-induced depolarization (at 26 µM (top of the series)) was -8.58% (inactive).

As to `COc1ccc(S(=O)(=O)N(C)C[C@@H]2Oc3c(NC(=O)Nc4ccc(F)cc4)cccc3C(=O)N([C@H](C)CO)C[C@H]2C)cc1`, the protection from cytokine-induced depolarization (at 26 µM (top of the series)) was 10.8% (inactive).

As to `Cc1ccc(S(=O)(=O)N(C)C[C@@H]2Oc3c(NC(=O)Nc4cccc5ccccc45)cccc3C(=O)N([C@H](C)CO)C[C@H]2C)cc1`, for the setting “at 23.5 µM (top of the series)”, the protection from cytokine-induced depolarization is 7.94% (inactive).

In the case of `C[C@@H]1CN([C@H](C)CO)C(=O)c2cccc(NC(=O)Nc3ccccc3)c2O[C@H]1CN(C)S(=O)(=O)c1ccc(Cl)cc1`, under “at 26 µM (top of the series)”, the protection from cytokine-induced depolarization was 15.6% (inactive).

For the compound `COc1ccc(S(=O)(=O)N(C)C[C@@H]2Oc3c(NC(=O)Nc4cccc5ccccc45)cccc3C(=O)N([C@@H](C)CO)C[C@H]2C)c(OC)c1`, the protection from cytokine-induced depolarization (at 26 µM (top of the series)) was 11.3% (inactive).

Turning to `COc1ccc(S(=O)(=O)N(C)C[C@@H]2Oc3ccc(NC(=O)Nc4cccc5ccccc45)cc3C(=O)N([C@@H](C)CO)C[C@H]2C)cc1`, the protection from cytokine-induced depolarization (at 26 µM (top of the series)) was -12% (inactive).

For `COc1ccc(S(=O)(=O)N(C)C[C@@H]2Oc3c(NC(=O)Nc4cccc5ccccc45)cccc3C(=O)N([C@@H](C)CO)C[C@@H]2C)cc1`, the protection from cytokine-induced depolarization (at 26 µM (top of the series)) is -0.543% (inactive).
